# Results from patent US20230049952A1, “METHODS AND COMPOUNDS FOR RESTORING MUTANT P53 FUNCTION” (PMV Pharmaceuticals, Inc., priority 2020, published 2023).
# Test system: NF-κB signaling pathway in MT373 tumors
# Assay: MT373 syngeneic sarcoma model: mouse NF-κB signaling pathway profiling panel
# Type: in vivo
compound,measurement,setting,value
"CCn1c(C#CCNc2ccccc2)cc2cc(CNC3CCN(C)CC3)ccc21 [Compound 1, 1-Anilino-3-{1-ethyl-5-[(1-methyl-4-piperidylamino)methyl]-1H-indol-2-yl}-2-propyne]",Card10 fold increase over or percent reduction vs vehicle control,"150 mg/kg BIDx1, 72 h",1.39 ± 0.49 fold or %
same,Card11 fold increase over or percent reduction vs vehicle control,"150 mg/kg BIDx1, 72 h",1.52 ± 0.54 fold or %
same,Casp1 fold increase over or percent reduction vs vehicle control,"150 mg/kg BIDx1, 72 h",9.73 ± 31.75 fold or %
same,Casp8 fold increase over or percent reduction vs vehicle control,"150 mg/kg BIDx1, 72 h",1.04 ± 0.13 fold or %
same,Ccl2 fold increase over or percent reduction vs vehicle control,"150 mg/kg BIDx1, 72 h",52.53 ± 13.14 fold or %
same,Ccl5 fold increase over or percent reduction vs vehicle control,"150 mg/kg BIDx1, 72 h",2.54 ± 37.88 fold or %
same,Cd27 fold increase over or percent reduction vs vehicle control,"150 mg/kg BIDx1, 72 h",1.53 ± 0.39 fold or %
same,Cd40 fold increase over or percent reduction vs vehicle control,"150 mg/kg BIDx1, 72 h",20.33 ± 32.50 fold or %
same,Cflar fold increase over or percent reduction vs vehicle control,"150 mg/kg BIDx1, 72 h",1.10 ± 0.20 fold or %
same,Chuk fold increase over or percent reduction vs vehicle control,"150 mg/kg BIDx1, 72 h",5.62 ± 25.53 fold or %
same,Crebbp fold increase over or percent reduction vs vehicle control,"150 mg/kg BIDx1, 72 h",1.12 ± 0.15 fold or %
same,Csf1 fold increase over or percent reduction vs vehicle control,"150 mg/kg BIDx1, 72 h",3.08 ± 4.37 fold or %
same,Csf2 fold increase over or percent reduction vs vehicle control,"150 mg/kg BIDx1, 72 h",5.23 ± 19.46 fold or %
same,Csf3 fold increase over or percent reduction vs vehicle control,"150 mg/kg BIDx1, 72 h",46.68 ± 13.40 fold or %
same,Egfr fold increase over or percent reduction vs vehicle control,"150 mg/kg BIDx1, 72 h",1.01 ± 0.23 fold or %
same,Egr1 fold increase over or percent reduction vs vehicle control,"150 mg/kg BIDx1, 72 h",66.09 ± 6.29 fold or %
same,Eif2ak2 fold increase over or percent reduction vs vehicle control,"150 mg/kg BIDx1, 72 h",5.36 ± 11.08 fold or %
same,Elk1 fold increase over or percent reduction vs vehicle control,"150 mg/kg BIDx1, 72 h",19.15 ± 11.29 fold or %
same,F2r fold increase over or percent reduction vs vehicle control,"150 mg/kg BIDx1, 72 h",14.84 ± 13.77 fold or %
same,Fadd fold increase over or percent reduction vs vehicle control,"150 mg/kg BIDx1, 72 h",1.25 ± 0.13 fold or %
same,Fasl fold increase over or percent reduction vs vehicle control,"150 mg/kg BIDx1, 72 h",42.85 ± 19.54 fold or %
same,Fos fold increase over or percent reduction vs vehicle control,"150 mg/kg BIDx1, 72 h",86.19 ± 1.00 fold or %
same,Hmox1 fold increase over or percent reduction vs vehicle control,"150 mg/kg BIDx1, 72 h",1.03 ± 0.18 fold or %
same,Icam1 fold increase over or percent reduction vs vehicle control,"150 mg/kg BIDx1, 72 h",1.07 ± 0.18 fold or %
same,Ifng fold increase over or percent reduction vs vehicle control,"150 mg/kg BIDx1, 72 h",22.04 ± 33.20 fold or %
same,Ikbkb fold increase over or percent reduction vs vehicle control,"150 mg/kg BIDx1, 72 h",1.24 ± 0.27 fold or %
same,Ikbke fold increase over or percent reduction vs vehicle control,"150 mg/kg BIDx1, 72 h",2.05 ± 40.34 fold or %
same,Ikbkg fold increase over or percent reduction vs vehicle control,"150 mg/kg BIDx1, 72 h",1.06 ± 0.32 fold or %
same,Il1a fold increase over or percent reduction vs vehicle control,"150 mg/kg BIDx1, 72 h",63.60 ± 11.55 fold or %
same,Il1b fold increase over or percent reduction vs vehicle control,"150 mg/kg BIDx1, 72 h",84.09 ± 6.24 fold or %
same,Il1r1 fold increase over or percent reduction vs vehicle control,"150 mg/kg BIDx1, 72 h",9.26 ± 29.81 fold or %
same,Il10 fold increase over or percent reduction vs vehicle control,"150 mg/kg BIDx1, 72 h",12.42 ± 41.31 fold or %
same,Irak1 fold increase over or percent reduction vs vehicle control,"150 mg/kg BIDx1, 72 h",4.37 ± 14.84 fold or %
same,Irak2 fold increase over or percent reduction vs vehicle control,"150 mg/kg BIDx1, 72 h",1.07 ± 0.14 fold or %
same,Irf1 fold increase over or percent reduction vs vehicle control,"150 mg/kg BIDx1, 72 h",1.06 ± 0.20 fold or %
same,Jun fold increase over or percent reduction vs vehicle control,"150 mg/kg BIDx1, 72 h",26.30 ± 10.41 fold or %
same,Lta fold increase over or percent reduction vs vehicle control,"150 mg/kg BIDx1, 72 h",26.12 ± 35.38 fold or %
same,Ltbr fold increase over or percent reduction vs vehicle control,"150 mg/kg BIDx1, 72 h",1.05 ± 0.08 fold or %
same,Map3k1 fold increase over or percent reduction vs vehicle control,"150 mg/kg BIDx1, 72 h",1.25 ± 0.28 fold or %
same,Mapk3 fold increase over or percent reduction vs vehicle control,"150 mg/kg BIDx1, 72 h",1.22 ± 0.17 fold or %
same,Myd88 fold increase over or percent reduction vs vehicle control,"150 mg/kg BIDx1, 72 h",37.76 ± 10.69 fold or %
same,Nfkb1 fold increase over or percent reduction vs vehicle control,"150 mg/kg BIDx1, 72 h",1.06 ± 0.05 fold or %
same,Nfkb2 fold increase over or percent reduction vs vehicle control,"150 mg/kg BIDx1, 72 h",1.30 ± 0.23 fold or %
same,Nfkbia fold increase over or percent reduction vs vehicle control,"150 mg/kg BIDx1, 72 h",6.09 ± 32.11 fold or %
same,Nod1 fold increase over or percent reduction vs vehicle control,"150 mg/kg BIDx1, 72 h",1.26 ± 0.26 fold or %
same,Raf1 fold increase over or percent reduction vs vehicle control,"150 mg/kg BIDx1, 72 h",4.12 ± 9.21 fold or %
same,Rel fold increase over or percent reduction vs vehicle control,"150 mg/kg BIDx1, 72 h",1.09 ± 0.23 fold or %
same,Rela fold increase over or percent reduction vs vehicle control,"150 mg/kg BIDx1, 72 h",1.01 ± 0.08 fold or %
same,Relb fold increase over or percent reduction vs vehicle control,"150 mg/kg BIDx1, 72 h",3.68 ± 22.32 fold or %
same,Ripk1 fold increase over or percent reduction vs vehicle control,"150 mg/kg BIDx1, 72 h",1.11 ± 0.09 fold or %
same,Ripk2 fold increase over or percent reduction vs vehicle control,"150 mg/kg BIDx1, 72 h",29.79 ± 5.69 fold or %
same,Slc20a1 fold increase over or percent reduction vs vehicle control,"150 mg/kg BIDx1, 72 h",36.31 ± 7.52 fold or %
same,Smad3 fold increase over or percent reduction vs vehicle control,"150 mg/kg BIDx1, 72 h",1.09 ± 0.18 fold or %
same,Stat1 fold increase over or percent reduction vs vehicle control,"150 mg/kg BIDx1, 72 h",1.20 ± 0.20 fold or %
same,Tbk1 fold increase over or percent reduction vs vehicle control,"150 mg/kg BIDx1, 72 h",1.17 ± 0.15 fold or %
same,Tlr1 fold increase over or percent reduction vs vehicle control,"150 mg/kg BIDx1, 72 h",1.52 ± 0.56 fold or %
same,Tlr2 fold increase over or percent reduction vs vehicle control,"150 mg/kg BIDx1, 72 h",1.05 ± 0.16 fold or %
same,Tlr3 fold increase over or percent reduction vs vehicle control,"150 mg/kg BIDx1, 72 h",5.46 ± 14.97 fold or %
same,Tlr4 fold increase over or percent reduction vs vehicle control,"150 mg/kg BIDx1, 72 h",1.13 ± 0.27 fold or %
same,Tlr6 fold increase over or percent reduction vs vehicle control,"150 mg/kg BIDx1, 72 h",1.25 ± 0.31 fold or %
same,Tlr9 fold increase over or percent reduction vs vehicle control,"150 mg/kg BIDx1, 72 h",1.78 ± 0.32 fold or %
same,Tnf fold increase over or percent reduction vs vehicle control,"150 mg/kg BIDx1, 72 h",3.41 ± 24.15 fold or %
same,Tnfaip3 fold increase over or percent reduction vs vehicle control,"150 mg/kg BIDx1, 72 h",10.12 ± 40.91 fold or %
same,Tnfrsf1a fold increase over or percent reduction vs vehicle control,"150 mg/kg BIDx1, 72 h",1.18 ± 0.13 fold or %
same,Tnfrsf1b fold increase over or percent reduction vs vehicle control,"150 mg/kg BIDx1, 72 h",1.52 ± 0.29 fold or %
same,Tnfrsf10b fold increase over or percent reduction vs vehicle control,"150 mg/kg BIDx1, 72 h",1.17 ± 0.22 fold or %
same,Tnfsf10 fold increase over or percent reduction vs vehicle control,"150 mg/kg BIDx1, 72 h",1.09 ± 0.21 fold or %
same,Tnfsf14 fold increase over or percent reduction vs vehicle control,"150 mg/kg BIDx1, 72 h",1.34 ± 0.30 fold or %
same,Tollip fold increase over or percent reduction vs vehicle control,"150 mg/kg BIDx1, 72 h",1.11 ± 0.10 fold or %
same,Tradd fold increase over or percent reduction vs vehicle control,"150 mg/kg BIDx1, 72 h",1.10 ± 0.24 fold or %
same,Traf2 fold increase over or percent reduction vs vehicle control,"150 mg/kg BIDx1, 72 h",1.17 ± 0.13 fold or %
same,Traf3 fold increase over or percent reduction vs vehicle control,"150 mg/kg BIDx1, 72 h",3.24 ± 6.50 fold or %
same,Traf5 fold increase over or percent reduction vs vehicle control,"150 mg/kg BIDx1, 72 h",1.24 ± 0.14 fold or %
same,Traf6 fold increase over or percent reduction vs vehicle control,"150 mg/kg BIDx1, 72 h",1.17 ± 0.24 fold or %
same,Zap70 fold increase over or percent reduction vs vehicle control,"150 mg/kg BIDx1, 72 h",1.52 ± 0.48 fold or %
same,Agt fold increase over or percent reduction vs vehicle control,"150 mg/kg BIDx1, […]",50.51 ± 41.92 fold or %
same,Akt1 fold increase over or percent reduction vs vehicle control,"150 mg/kg BIDx1, […]",8.16 ± 7.88 fold or %
same,Atf1 fold increase over or percent reduction vs vehicle control,"150 mg/kg BIDx1, […]",1.13 ± 0.30 fold or %
same,Atf2 fold increase over or percent reduction vs vehicle control,"150 mg/kg BIDx1, […]",1.00 ± 0.20 fold or %
same,Bcl2a1a fold increase over or percent reduction vs vehicle control,"150 mg/kg BIDx1, […]",4.90 ± 3.38 fold or %
same,Bcl2l1 fold increase over or percent reduction vs vehicle control,"150 mg/kg BIDx1, […]",1.00 ± 0.07 fold or %
same,Bcl3 fold increase over or percent reduction vs vehicle control,"150 mg/kg BIDx1, […]",14.36 ± 16.67 fold or %
same,Bcl10 fold increase over or percent reduction vs vehicle control,"150 mg/kg BIDx1, […]",1.18 ± 0.09 fold or %
same,Birc3 fold increase over or percent reduction vs vehicle control,"150 mg/kg BIDx1, […]",1.10 ± 0.26 fold or %
same,Card10 fold increase over or percent reduction vs vehicle control,"150 mg/kg BIDx1, […]",40.14 ± 8.96 fold or %
same,Card11 fold increase over or percent reduction vs vehicle control,"150 mg/kg BIDx1, […]",1.85 ± 0.30 fold or %
same,Casp1 fold increase over or percent reduction vs vehicle control,"150 mg/kg BIDx1, […]",1.82 ± 0.71 fold or %
same,Casp8 fold increase over or percent reduction vs vehicle control,"150 mg/kg BIDx1, […]",1.14 ± 0.07 fold or %
same,Ccl2 fold increase over or percent reduction vs vehicle control,"150 mg/kg BIDx1, […]",1.47 ± 0.35 fold or %
